Test results reported in US12415834B2, “GhR-binding peptide and composition comprising same” (priority 2021, dated 2025).
pKd: −log10 of the molar value. Starred links: 1 amine or outer side, 2 acyl side, 3 side chain; linkers in the order of their positions; H or OH if unused. Positions of bridges follow the written chain, without caps; N, C: chain ends. Non-standard residues stand in square brackets, D forms with d. Residues, ends and D or L forms follow the SMILES beside them. Groups on a side chain read outwards from the residue. *: point of attachment. X12 = NC(=O)[C@H](CCCCN*)NC(=O)CC[C@H](NC(=O)CC[C@H](NC(=O)CCCc1ccc(-c2ccccc2)cc1)C(=O)O)C(=O)O; X3 = NC(=O)[C@H](CCCCN*)NC(=O)CC[C@H](NC(=O)CC[C@H](NC(=O)CCCCCCCCCCCCCCC(=O)O)C(=O)O)C(=O)O; X5 = NC(=O)[C@H](CCCCN*)NC(=O)CC[C@H](NC(=O)CC[C@H](NC(=O)CCCCCc1ccccc1)C(=O)O)C(=O)O; X18 = NC(=O)[C@H](CCCCN*)NC(=O)CC[C@H](NC(=O)CC[C@H](NC(=O)CCCc1ccccc1)C(=O)O)C(=O)O; Trp(1-CH2CO) = O=C([C@H](Cc1cn(CC(=O)[*:3])c2ccccc12)N[*:1])[*:2]; Trp(5-OMe) = COc1ccc2[nH]cc(C[C@H](N)C(=O)O)c2c1; Butanoyl(4-(4-I-phenyl)) = O=C(CCCc1ccc(I)cc1)*; Trp(5-OH) = N[C@@H](Cc1c[nH]c2ccc(O)cc12)C(=O)O; Phe(4-COOH) = N[C@@H](Cc1ccc(C(=O)O)cc1)C(=O)O; X7 = O=C(O)CN1CCC(N[*:1])(C(=O)[*:2])CC1; γGlu = O=C(O)[C@H](CCC(=O)[*:2])N[*:1]; Hexanoyl(6-Ph) = O=C(CCCCCc1ccccc1)*; X9 = O=C(CCCc1ccc(-c2ccccc2)cc1)*; NMeK = CN[C@@H](CCCCN)C(=O)O; X16 = CN(CC(=O)[*:1])[*:2]; Aib = CC(C)(N)C(=O)O

Target: T1, Recombinant human GhR-Fc protein (Homo sapiens, UniProt P10912)
T1 construct: purchased R&D Systems
T1 sequence (P10912 with tags, fused parts or gaps limits assumed): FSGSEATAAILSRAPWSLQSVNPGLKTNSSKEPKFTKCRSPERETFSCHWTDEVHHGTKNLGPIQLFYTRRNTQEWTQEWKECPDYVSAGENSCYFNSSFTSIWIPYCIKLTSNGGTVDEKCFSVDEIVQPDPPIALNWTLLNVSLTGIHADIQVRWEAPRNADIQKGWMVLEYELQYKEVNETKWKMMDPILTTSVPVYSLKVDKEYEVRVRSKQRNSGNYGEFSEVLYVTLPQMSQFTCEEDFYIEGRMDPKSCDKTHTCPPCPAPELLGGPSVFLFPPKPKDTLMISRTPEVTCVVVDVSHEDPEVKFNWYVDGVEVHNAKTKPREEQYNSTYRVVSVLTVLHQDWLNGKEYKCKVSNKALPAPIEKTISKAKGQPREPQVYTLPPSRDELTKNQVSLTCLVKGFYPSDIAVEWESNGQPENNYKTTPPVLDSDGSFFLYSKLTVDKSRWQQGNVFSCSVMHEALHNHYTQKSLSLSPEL
Experiment: SPR binding assay (Biacore T200, single-cycle kinetics) of peptides against immobilized human GhR-Fc
Settings: not given
Method: SPR assay was performed using Biacore T200 (cytiva: Former GE Healthcare). After the equilibration of Series S Sensor Chip CM5 (produced by cytiva: Former GE Healthcare) with Running Buffer (HBS-EP with 1% (v/v) DMSO), an EDC/NHS mixture was injected at a flow rate of 10 μL/min for 7 minutes to thereby activate the functional groups on sensor chip. Recombinant human GhR-Fc protein (R&D Systems) in 10 mM Acetate (pH 4.0) was injected immobilized to at a flow rate of 5 μL/min. It took 7 minutes to immobilize the GhR on the substrate surfaces of the sensor chip. Then Ethanolamine was injected at a flow rate of 10 μL/min for 7 minutes. 1M Ethanolamine (aq.) was injected at a flow rate of 10 μL/min for 420 seconds for capping.
Using these Peptide Samples, kinetics of peptides against human GhR-Fc protein were measured. The method adopted for sample measurement was a single-cycle kinetics method. The analysis was conducted using the evaluation software provided with Biacore T200. A DMSO correction curve obtained by solvent correction measurements was applied for the analysis. Kinetics fitting was done on the difference data obtained by subtracting the baseline data from sample measurement data. KD values were calculated based on the association rate constant (ka) and dissociation rate constant (kd). […]

Row | Structure (SMILES) | pKd
1 | COc1ccc2[nH]cc(C[C@@H]3NC(=O)[C@H](CC(N)=O)NC(=O)[C@H](CO)NC(=O)[C@H](C(C)C)NC(=O)[C@H](C(C)C)NC(=O)[C@H](CCCCNC(=O)CC[C@H](NC(=O)CCCc4ccc(-c5ccccc5)cc4)C(=O)O)N(C)C(=O)[C@H](Cc4ccc(C(=O)O)cc4)NC(=O)CSC[C@@H](C(N)=O)NC(=O)[C@H](C(C)C)NC(=O)C4(CCN(CC(=O)O)CC4)NC(=O)[C@H](Cc4c[nH]c5ccc(O)cc45)NC(=O)[C@H](CCCCN)NC(=O)[C@H](Cc4ccc(C(=O)O)cc4)NC3=O)c2c1 [Compound 37] ({CH2CO}-[Phe(4-COOH)][NMeK]([γGlu-X9])VVSN[Trp(5-OMe)][Phe(4-COOH)]K[Trp(5-OH)][X7]VC-NH2; thioether N-13) | 8.24
2 | CC(C)[C@@H]1NC(=O)[C@H](C(C)C)NC(=O)[C@@H]2CCCCNC(=O)Cn3cc(c4ccccc43)C[C@H](NC(=O)[C@H](CC(N)=O)NC(=O)[C@H](CO)NC1=O)C(=O)N[C@@H](Cc1ccc(C(=O)O)cc1)C(=O)N[C@@H](CCCCN)C(=O)N[C@@H](Cc1c[nH]c3ccc(O)cc13)C(=O)NC(C)(C)C(=O)N[C@@H](C(C)C)C(=O)N[C@H](C(=O)NCCCC[C@H](NC(=O)CC[C@H](NC(=O)CC[C@H](NC(=O)CCCc1ccc(-c3ccccc3)cc1)C(=O)O)C(=O)O)C(N)=O)CSCC(=O)N[C@@H](Cc1ccc(C(=O)O)cc1)C(=O)N2C [Compound 15] ({CH2CO}-[Phe(4-COOH)][NMeK]VVSN[Trp(1-CH2CO)][Phe(4-COOH)]K[Trp(5-OH)][Aib]VC-X12; lactam 2-7; thioether N-13) | 8.79

Same assay, conditions: SPR, hGhR; Table 1 bicyclic peptides; KD calculated from ka and kd; read-out: KD

Row | Structure (SMILES) | pKd
3 | CC(C)[C@@H]1NC(=O)[C@H](C(C)C)NC(=O)[C@@H]2CCCCNC(=O)Cn3cc(c4ccccc43)C[C@H](NC(=O)[C@H](CC(N)=O)NC(=O)[C@H](CO)NC1=O)C(=O)N[C@@H](Cc1ccc(C(=O)O)cc1)C(=O)N[C@@H](CCCCN)C(=O)N[C@@H](Cc1c[nH]c3ccc(O)cc13)C(=O)NC(C)(C)C(=O)N[C@@H](C(C)C)C(=O)N[C@H](C(=O)NCCCC[C@H](NC(=O)CC[C@H](NC(=O)CC[C@H](NC(=O)CCCCCc1ccccc1)C(=O)O)C(=O)O)C(N)=O)CSCC(=O)N[C@@H](Cc1ccc(C(=O)O)cc1)C(=O)N2C [Compound 16] ({CH2CO}-[Phe(4-COOH)][NMeK]VVSN[Trp(1-CH2CO)][Phe(4-COOH)]K[Trp(5-OH)][Aib]VC-X5; lactam 2-7; thioether N-13) | 8.71
4 | CC(C)[C@@H]1NC(=O)[C@H](C(C)C)NC(=O)[C@@H]2CCCCNC(=O)Cn3cc(c4ccccc43)C[C@H](NC(=O)[C@H](CC(N)=O)NC(=O)[C@H](CO)NC1=O)C(=O)N[C@@H](Cc1ccc(C(=O)O)cc1)C(=O)N[C@@H](CCCCN)C(=O)N[C@@H](Cc1c[nH]c3ccc(O)cc13)C(=O)NC(C)(C)C(=O)N[C@@H](C(C)C)C(=O)N[C@H](C(=O)NCCCC[C@H](NC(=O)CC[C@H](NC(=O)CC[C@H](NC(=O)CCCc1ccccc1)C(=O)O)C(=O)O)C(N)=O)CSCC(=O)N[C@@H](Cc1ccc(C(=O)O)cc1)C(=O)N2C [Compound 10] ({CH2CO}-[Phe(4-COOH)][NMeK]VVSN[Trp(1-CH2CO)][Phe(4-COOH)]K[Trp(5-OH)][Aib]VC-X18; lactam 2-7; thioether N-13) | 8.69
5 | CC(C)[C@@H]1NC(=O)[C@H](C(C)C)NC(=O)[C@@H]2CCCCNC(=O)Cn3cc(c4ccccc43)C[C@H](NC(=O)[C@H](CC(N)=O)NC(=O)[C@H](CO)NC1=O)C(=O)N[C@@H](Cc1ccc(O)cc1)C(=O)N[C@@H](CCCCN)C(=O)N[C@@H](Cc1c[nH]c3ccc(O)cc13)C(=O)NC1(CCN(CC(=O)O)CC1)C(=O)N[C@@H](C(C)C)C(=O)N[C@H](C(=O)NCCCC[C@H](NC(=O)CC[C@H](NC(=O)CC[C@H](NC(=O)CCCCCCCCCCCCCCC(=O)O)C(=O)O)C(=O)O)C(N)=O)CSCC(=O)N[C@@H](Cc1ccc(C(=O)O)cc1)C(=O)N2C [Compound 18] ({CH2CO}-[Phe(4-COOH)][NMeK]VVSN[Trp(1-CH2CO)]YK[Trp(5-OH)][X7]VC-X3; lactam 2-7; thioether N-13) | 8.62
6 | CC(C)[C@@H]1NC(=O)[C@H](C(C)C)NC(=O)[C@@H]2CCCCNC(=O)Cn3cc(c4ccccc43)C[C@H](NC(=O)[C@H](CC(N)=O)NC(=O)[C@H](CO)NC1=O)C(=O)N[C@@H](Cc1ccc(C(=O)O)cc1)C(=O)N[C@@H](CCCCN)C(=O)N[C@@H](Cc1c[nH]c3ccc(O)cc13)C(=O)NC1(CCN(CC(=O)O)CC1)C(=O)N[C@@H](C(C)C)C(=O)N[C@H](C(=O)NCCCC[C@H](NC(=O)CC[C@H](NC(=O)CC[C@H](NC(=O)CCCCCCCCCCCCCCC(=O)O)C(=O)O)C(=O)O)C(N)=O)CSCC(=O)N[C@@H](Cc1ccc(O)cc1)C(=O)N2C [Compound 23] ({CH2CO}-Y[NMeK]VVSN[Trp(1-CH2CO)][Phe(4-COOH)]K[Trp(5-OH)][X7]VC-X3; lactam 2-7; thioether N-13) | 8.64
7 | CC(C)[C@@H]1NC(=O)[C@H](C(C)C)NC(=O)[C@@H]2CCCCNC(=O)CN(C)C(=O)Cn3cc(c4ccccc43)C[C@H](NC(=O)[C@H](CC(N)=O)NC(=O)[C@H](CO)NC1=O)C(=O)N[C@@H](Cc1ccc(O)cc1)C(=O)N[C@@H](CCCCN)C(=O)N[C@@H](Cc1c[nH]c3ccc(O)cc13)C(=O)NC(C)(C)C(=O)N[C@@H](C(C)C)C(=O)N[C@H](C(=O)NCC(N)=O)CSCC(=O)N[C@@H](Cc1ccc(O)cc1)C(=O)N2C [Compound 3] ({CH2CO}-Y[NMeK]VVSN[Trp(1-CH2CO)]YK[Trp(5-OH)][Aib]VCG-NH2; linker 2-7 via X16; thioether N-13) | 8.77

Same assay, conditions: SPR, hGhR; Table 2 monocyclic peptides; KD calculated from ka and kd; read-out: KD

Row | Structure (SMILES) | pKd
8 | COc1ccc2[nH]cc(C[C@@H]3NC(=O)[C@H](CC(N)=O)NC(=O)[C@H](CO)NC(=O)[C@H](C(C)C)NC(=O)[C@H](C(C)C)NC(=O)[C@H](CCCCNC(=O)CC[C@H](NC(=O)CCCCCc4ccccc4)C(=O)O)N(C)C(=O)[C@H](Cc4ccc(O)cc4)NC(=O)CSC[C@@H](C(=O)NCC(=O)N4CCC[C@H]4C(=O)N[C@H](CO)C(=O)N[C@H](CO)C(=O)N[C@H](CO)C(N)=O)NC(=O)[C@H](C(C)C)NC(=O)C(C)(C)NC(=O)[C@H](Cc4c[nH]c5ccc(O)cc45)NC(=O)[C@H](CCCCN)NC(=O)[C@H](Cc4ccc(C(=O)O)cc4)NC3=O)c2c1 [Compound 57] ({CH2CO}-Y[NMeK]([γGlu-Hexanoyl(6-Ph)])VVSN[Trp(5-OMe)][Phe(4-COOH)]K[Trp(5-OH)][Aib]VCGP[dS][dS][dS]-NH2; thioether N-13) | 8.90
9 | COc1ccc2[nH]cc(C[C@@H]3NC(=O)[C@H](CC(N)=O)NC(=O)[C@H](CO)NC(=O)[C@H](C(C)C)NC(=O)[C@H](C(C)C)NC(=O)[C@H](CCCCNC(=O)CC[C@H](NC(=O)CCCc4ccc(I)cc4)C(=O)O)N(C)C(=O)[C@H](Cc4ccc(C(=O)O)cc4)NC(=O)CSC[C@@H](C(N)=O)NC(=O)[C@H](C(C)C)NC(=O)C4(CCN(CC(=O)O)CC4)NC(=O)[C@H](Cc4c[nH]c5ccc(O)cc45)NC(=O)[C@H](CCCCN)NC(=O)[C@H](Cc4ccc(C(=O)O)cc4)NC3=O)c2c1 [Compound 36] ({CH2CO}-[Phe(4-COOH)][NMeK]([γGlu-Butanoyl(4-(4-I-phenyl))])VVSN[Trp(5-OMe)][Phe(4-COOH)]K[Trp(5-OH)][X7]VC-NH2; thioether N-13) | 7.97
10 | COc1ccc2[nH]cc(C[C@@H]3NC(=O)[C@H](CC(N)=O)NC(=O)[C@H](CO)NC(=O)[C@H](C(C)C)NC(=O)[C@H](C(C)C)NC(=O)[C@H](CCCCNC(=O)CC[C@H](NC(=O)CCCc4ccc(I)cc4)C(=O)O)N(C)C(=O)[C@H](Cc4ccc(C(=O)O)cc4)NC(=O)CSC[C@@H](C(=O)NCC(=O)N4CCC[C@H]4C(=O)N[C@H](CO)C(=O)N[C@H](CO)C(=O)N[C@H](CO)C(N)=O)NC(=O)[C@H](C(C)C)NC(=O)C(C)(C)NC(=O)[C@H](Cc4c[nH]c5ccc(O)cc45)NC(=O)[C@H](CCCCN)NC(=O)[C@H](Cc4ccc(C(=O)O)cc4)NC3=O)c2c1 [Compound 41] ({CH2CO}-[Phe(4-COOH)][NMeK]([γGlu-Butanoyl(4-(4-I-phenyl))])VVSN[Trp(5-OMe)][Phe(4-COOH)]K[Trp(5-OH)][Aib]VCGP[dS][dS][dS]-NH2; thioether N-13) | 8.58
11 | COc1ccc2[nH]cc(C[C@@H]3NC(=O)[C@H](CC(N)=O)NC(=O)[C@H](CO)NC(=O)[C@H](C(C)C)NC(=O)[C@H](C(C)C)NC(=O)[C@H](CCCCNC(=O)CC[C@H](NC(=O)CC[C@H](NC(=O)CCCc4ccc(I)cc4)C(=O)O)C(=O)O)N(C)C(=O)[C@H](Cc4ccc(O)cc4)NC(=O)CSC[C@@H](C(=O)NCC(=O)N4CCC[C@H]4C(=O)N[C@H](CO)C(=O)N[C@H](CO)C(=O)N[C@H](CO)C(N)=O)NC(=O)[C@H](C(C)C)NC(=O)C(C)(C)NC(=O)[C@H](Cc4c[nH]c5ccc(O)cc45)NC(=O)[C@H](CCCCN)NC(=O)[C@H](Cc4ccc(C(=O)O)cc4)NC3=O)c2c1 [Compound 55] ({CH2CO}-Y[NMeK]([γGlu-γGlu-Butanoyl(4-(4-I-phenyl))])VVSN[Trp(5-OMe)][Phe(4-COOH)]K[Trp(5-OH)][Aib]VCGP[dS][dS][dS]-NH2; thioether N-13) | 8.55
